Test results taken from patent US20170202973A1 (GENENTECH, INC., priority 2009, published 2017).
Read-outs that look alike come from different tables or passages of the source.

What was measured:
[1] = cited from earlier work
[2] = test system: HER2-positive metastatic breast cancer; details: for Patients Censored, % / Patients Censored, number / Patients Progressed, % / Patients Progressed, number: PFS analysis; for CR / Clinical Benefit Rate / Missing tumor response / Objective Response Rate, % / PD / PR / UE: N = 110, updated analysis
Protocol: The analysis of objective response rate was conducted with patient data collected through approximately 26 weeks after the last patient is enrolled in the study. This study enrolled patients with HER2-positive MBC. […] Patients will be required to have HER2-positive status, as evidenced by either 3+ HER2 protein overexpression determined by immunohistochemistry (IHC) or HER2 gene amplification determined by FISH.
Efficacy Assessments: Tumor responses were categorized as complete response (CR), partial response (PR), stable disease (SD), or progressive disease (PD) according to the Response Evaluation Criteria for Solid Tumors (RECIST). Tumor assessments (CT and/or magnetic resonance imaging [MRI] scans) were performed approximately every 6 weeks irrespective of dose delays, interruptions, or reductions. Bone and brain scans (either CT or Mill) were performed at baseline and if clinically indicated during the study. Patient management decisions were made based on tumor assessments performed by investigators. The primary study endpoints related to response were determined by an independent radiologic review of patient scans, with assessments based on investigator reporting being secondary. If each non-target lesion cannot be assessed at a follow-up tumor assessment timepoint, patients may still be considered evaluable for timepoint response as long as all target lesions are measured. Patients with non-target lesions that were not assessed at a timepoint were assessed as having a partial response, stable disease, or progressive disease. All lesions, target and non-target, were assessed before a response was considered confirmed. To reduce the frequency of unevaluable non-target lesions, bone lesions visible on baseline CT scan as non-target lesion(s) for follow-up, were compared with bone lesions identified on the baseline bone scan where possible if lesions are not visible on both modalities or as easily and reproducibly assessed.
Efficacy Assessments: An assessment of the objective response rate, the primary objective of this trial, was based on the RECIST and confirmed by independent review of baseline and follow-up assessments obtained every 6 weeks. All known sites of disease should be reassessed at each timepoint whenever possible. Because bone involvement is a common finding in patients with MBC, a bone scan at baseline may be conducted. In addition, patients with non-target lesions that were not assessed at a timepoint were assessed as having a partial response, stable disease, or progressive disease. All lesions, target and non-target (including bone lesions), were assessed before a complete response can be considered confirmed.
Efficacy Outcome Measures: The primary efficacy outcome measure is objective response (defined as a complete or partial response determined on two consecutive occasions 4 weeks apart), as assessed through independent radiologic review using RECIST. The secondary efficacy outcome measures are as follows: Duration of objective response, as assessed through independent radiologic review using RECIST; PFS, as assessed through independent radiologic review using RECIST; CBR based on independent radiologic review using RECIST; Objective response based on investigator assessments using RECIST; Duration of objective response based on investigator assessments using RECIST; PFS based on investigator assessments using RECIST; and CBR based on investigator assessments using RECIST.
The analysis of objective response rate was conducted with patient data collected through approximately 26 weeks after the last patient was enrolled in the study. In addition, the final analysis of safety and all secondary and exploratory endpoints will be updated with sufficient data when available (estimated to be approximately 10 months after the last patient is enrolled in the study). After the final analysis, the study was closed. […] This study enrolled patients with HER2-positive MBC.

[3] = Investigator, N = 110, initial analysis
[4] = Patients with HER2+ retrospectively confirmed, n = 76, INV, initial analysis
[5] = Patients with HER2+ retrospectively confirmed, n = 76, IRF, initial analysis
[6] = Patients with HER2+ retrospectively confirmed, n = 80, INV, updated analysis
[7] = Patients with HER2+ retrospectively confirmed, n = 80, IRF, updated analysis
[8] = Patients with HER2 normal, n = 15, INV, initial analysis
[9] = Patients with HER2 normal, n = 15, IRF, initial analysis
[10] = of 110 treated, 70 discontinued, data cutoff

COc1cc2cc(c1Cl)N(C)C(=O)C[C@H](OC(=O)[C@H](C)N(C)C(C)=O)[C@]1(C)O[C@H]1[C@H](C)[C@@H]1C[C@@](O)(NC(=O)O1)[C@H](OC)/C=C/C=C(\C)C2 [maytansine]
dose-limiting toxicity (DLT) ([1]; approximately 800 patients, 2.0 mg/m^2 every 3 weeks, single dose or 3 consecutive days): gastrointestinal | activity in the clinic ([1]; at doses that could be safely delivered): modest

trastuzumab-MCC-DM1 [T-DM1]
Patients Censored, % ([2]; INV, all treated patients): 45.5% | Patients Censored, number ([2]; INV, all treated patients): 50 patients | Patients Progressed, % ([2]; INV, all treated patients): 54.5% | Patients Progressed, number ([2]; INV, all treated patients): 60 patients | PFS (months) 25-75% ([2]; INV, all treated patients): 2.8-11.1 months | Missing tumor response, % ([2]; IRF, N = 110, initial analysis): (0.9%) | PD, % ([2]; IRF, N = 110, initial analysis): (18.2%) | PR, % ([2]; IRF, N = 110, initial analysis): (32.7%) | UE, % ([2]; IRF, N = 110, initial analysis): (1.8%) | CR ([2]; IRF): 0% | Clinical Benefit Rate ([2]; IRF): 48.2% | Missing tumor response ([2]; IRF): 0.9% | Objective Response Rate, % ([2]; IRF): 34.5% | PD ([2]; IRF): 18.2% | PR ([2]; IRF): 34.5% | UE ([2]; IRF): 1.8% | Patients Censored, % ([2]; IRF, all treated patients): 54.5% | Patients Censored, number ([2]; IRF, all treated patients): 60 patients | Patients Progressed, % ([2]; IRF, all treated patients): 45.5% | Patients Progressed, number ([2]; IRF, all treated patients): 50 patients | PFS (months) 25-75% ([2]; IRF, all treated patients): 2.6-9.7 months | PFS (months) median ([2]; IRF, all treated patients, initial analysis): 7.3 months | median PFS ([2]; IRF, updated analysis, all treated patients, 95% CI (4.2-8.4)): 6.9 | CR, % [2, 3]: (1.8%) | Missing tumor response, % [2, 3]: (2.7%) | PD, % [2, 3]: (13.6%) | PR, % [2, 3]: (28.2%) | UE, % [2, 3]: (0.9%) | CR ([2]; Investigator): 4.5% | Clinical Benefit Rate ([2]; Investigator): 46.4% | Missing tumor response ([2]; Investigator): 0.9% | Objective Response Rate, % ([2]; Investigator): 32.7% | PD ([2]; Investigator): 14.5% | PR ([2]; Investigator): 28.2% | UE ([2]; Investigator): 0.9% | Clinical benefit rate, % [2, 4]: 47.4% | ORR, % [2, 4]: 36.8% | Clinical benefit rate, % [2, 5]: 52.6% | ORR, % [2, 5]: 39.5% | Clinical benefit rate, % [2, 6]: (53.8%) | ORR, % [2, 6]: (40.0%) | Clinical benefit rate, % [2, 7]: (55.0%) | ORR, % [2, 7]: (41.3%) | Clinical benefit rate, % [2, 8]: 20.0% | ORR, % [2, 8]: 13.3% | Clinical benefit rate, % [2, 9]: 26.7% | ORR, % [2, 9]: 20.0% | patients that discontinued treatment with progressive disease, % [2, 10]: 52.7% | patients that discontinued treatment with progressive disease, number [2, 10]: 58 patients
